In publication PMC9289672, “Optimization of Antibacterial Activity in Tibetan Swine α-Helix Peptide TP by Site-Directed Mutagenesis” (Frontiers in Microbiology, 2022):
Like-named read-outs stand apart in the source and are kept apart here. Where no end group is shown, it is not given here.

Key:
[1] = tested on: Pseudomonas aeruginosa ATCC 27853
From the text: (§1) The bacteria strains Escherichia coli ATCC 25922, Escherichia coli UB1005, Salmonella typhimurium ATCC 14028, Salmonella typhimurium C7731, Pseudomonas aeruginosa ATCC 27853, Pseudomonas aeruginosa PAO1, Staphylococcus aureus ATCC 29213, Staphylococcus aureus ATCC 25923, Methicillin-resistant Staphylococcus aureus (MRSA) 43300, Enterococcus faecalis ATCC 29212, and Staphylococcus epidermidis ATCC 12228 were obtained from the College of Veterinary Medicine, Northeast Agricultural University (Harbin, China).
(§2) The bacteria were cultured overnight in the MHB medium and transferred to the new MHB the next day until the bacteria reached the exponential growth stage. The bacteria were diluted with MHB to 2 × 10^5 CFU/ml. About 50 μl of polypeptide and equal volume of bacterial suspension was added to a 96-well plate to give the final concentration of polypeptide between 1 and 128 μm. The last two columns are negative (MHB only) and positive (bacterial and MHB) controls and incubated at 37°C for 18–24 h. Optical density was measured at an absorbance wavelength of 492 nm using a microplate reader (Tecan GENios F129004, Tecan, Austria). At least three independent measurements were taken. Each trial was conducted two times in parallel. A total of three independent assays were carried out.

[2] = tested on: Staphylococcus epidermidis ATCC 12228
From the text: as §1, §2

[3] = tested on: Salmonella typhimurium ATCC 14028
From the text: as §1, §2

[4] = tested on: Enterococcus faecalis ATCC 29212
From the text: as §1, §2

[5] = tested on: Staphylococcus aureus ATCC 29213
From the text: as §1, §2

[6] = tested on: Salmonella typhimurium C7731; details: MHB, bacteria diluted to 2 × 10^5 CFU/ml, peptide 1-128 μm, 37°C 18-24 h, OD 492 nm; three independent assays, two in parallel
From the text: as §1, §2

[7] = tested on: Methicillin-resistant Staphylococcus aureus (MRSA) 43300; details: Methicillin-resistant 43300
From the text: as §1, §2

[8] = tested on: Pseudomonas aeruginosa PAO1
From the text: as §1, §2

Escherichia coli UB1005 = details: MHB, bacteria diluted to 2 × 10^5 CFU/ml, peptide 1-128 μm, 37°C 18-24 h, OD 492 nm; three independent assays, two in parallel
From the text: as §1, §2

[9] = tested on: Staphylococcus aureus ATCC 25923
From the text: as §1, §2

[10] = tested on: Escherichia coli ATCC 25922
From the text: as §1, §2

all strains in Table 2 = test: Geometric mean of MIC and therapeutic index; type: cell-based; details: MHC/GM; 128 μm used when 50% hemolysis not observed at 128 μm
Description: as §2
Trp is a hydrophobic amino acid with aromatic side chains. It is a special amino acid in peptide design. Previous studies have pointed out that introducing amino acids will also bring toxicity while improving activity. Therefore, at the beginning of the design, we predicted that selecting Trp as hydrophobic amino acid to substitute H-H position would bring certain toxicity to the peptide. Thus, as expected, the introduction of Trp increases the activity and toxicity of these peptides. […] Meanwhile, the virulence of TP(i+4) 1&2&5&6 and TP(i+4) 1&2&6&7 was lower than that of TP(i+4) 1&2&5&7. We infer that the location of hydrophobic centers can effectively reduce peptide toxicity by Trp substitution. For further evaluating the cell selectivity of the peptides, we also calculated the SI which defined as the ratio of MHC to the geometric mean (GM) (Dufourc, [2008]).

Gram-positive bacteria = test: Geometric mean of MIC and therapeutic index; type: cell-based; details: MHC/GM; 128 μm used when 50% hemolysis not observed at 128 μm
Description: as §2
(§3) Trp is a hydrophobic amino acid with aromatic side chains. It is a special amino acid in peptide design. Previous studies have pointed out that introducing amino acids will also bring toxicity while improving activity. […] For further evaluating the cell selectivity of the peptides, we also calculated the SI which defined as the ratio of MHC to the geometric mean (GM) (Dufourc, [2008]).

Gram-negative bacteria = test: Geometric mean of MIC and therapeutic index; type: cell-based; details: MHC/GM; 128 μm used when 50% hemolysis not observed at 128 μm
Description: as §2, §3

[11] = tested on: hRBCs (human red blood cells); test: Hemolytic activity; details: three independent assays, two in parallel
Description: (§5) The cytotoxicity of each peptide was assessed with IPEC-J12 and HEK 293T cells. […] Each trial was conducted two times in parallel. A total of three independent assays were carried out.

E. coli 25922 = type: cell-based, Escherichia coli; details: 25922, 4 h
Description: (§4) The salt and serum stability of polypeptides were determined by improved MIC method (Lv et al., [2014]). Peptides were incubated with BSA containing different final concentrations of salt ions (150 mM NaCl, 4.5 mM KCl, 6 μm NH4Cl, 8 μm ZnCl2, 1 mM MgCl2, 2 mM CaCl2, and 4 μm FeCl3) (Wang et al., [2018]). To determine the stability of the peptide in serum, peptide was incubated with different proportions of serum (50%, 100%) at 37°C for 4 h. The following steps are the same as those for antimicrobial activity. Each trial was conducted two times in parallel. A total of three independent assays were carried out.

S. aureus 29213 = type: cell-based, Staphylococcus aureus; details: 29213, 4 h
Description: as §4

[12] = tested on: hRBCs (human red blood cells)
Description: as §5

Row | Substance | MIC, P. aeruginosa 27853 [1] | MIC, S. epidermidis 12228 [2] | MIC, S. typhimurium 14028 [3] | MIC, E. faecalis 29212 [4] | MIC, S. aureus 29213 [5] | MIC, S. typhimurium 7731 [6] | MIC, S. aureus 43300 [7] | MIC, P. aeruginosa PAO1 [8] | MIC, E. coli UB1005 (Escherichia coli UB1005) | MIC, S. aureus 25923 [9] | MIC, E. coli 25922 [10] | Therapeutic index (TI) / selectivity index (SI), All (all strains in Table 2) | Therapeutic index (TI), Gram-positive bacteria (Gram-positive bacteria) | Therapeutic index (TI), Gram-negative bacteria (Gram-negative bacteria) | MHC (concentration of peptide that causes hemolysis of 50% of human red blood cells) [11] | further results
1 | ASVVKWWTKWWAKLLK-NH2 [TP(i+4) 1&2&6&7] | 8 µM | 2 µM | 4 µM | 2 µM | 2 µM | 8 µM | 4 µM | 4 µM | 4 µM | 2 µM | 4 µM | 18.80 | 27.83 | 12.70 | 64.00 µM | –
2 | ASVVKWLTKWVAKLLK-NH2 [TP(i+4) 1&2&7] | 4 µM | 4 µM | 4 µM | 4 µM | 2 µM | 8 µM | 4 µM | 4 µM | 4 µM | 4 µM | 4 µM | 16.19 | 18.39 | 14.25 | 64.00 µM | –
3 | ASVVKKLTKGVAKLLK-NH2 [TP(i+4) 1&2] | 16 µM | >128 µM | 32 µM | >128 µM | >128 µM | 16 µM | >128 µM | 8 µM | 4 µM | >128 µM | 4 µM | 3.56 | 1.00 | 12.70 | – | MIC after incubation with 100% serum (E. coli 25922): 32 µM; MIC in the presence of Ca2+ (E. coli 25922): >64 µM; MIC in the presence of Fe3+ (E. coli 25922): 8 µM; MIC in the presence of K+ (E. coli 25922): 8 µM; MIC in the presence of Mg2+ (E. coli 25922): 32 µM; MIC in the presence of NH4+ (E. coli 25922): 8 µM; MIC in the presence of Na+ (E. coli 25922): >64 µM; MIC in the presence of Zn2+ (E. coli 25922): 2 µM; MIC, Control (E. coli 25922): 4 µM; MIC after incubation with 100% serum (S. aureus 29213): >64 µM; MIC in the presence of Ca2+ (S. aureus 29213): >64 µM; MIC in the presence of Fe3+ (S. aureus 29213): >64 µM; MIC in the presence of K+ (S. aureus 29213): >64 µM; MIC in the presence of Mg2+ (S. aureus 29213): >64 µM; MIC in the presence of NH4+ (S. aureus 29213): >64 µM; MIC in the presence of Na+ (S. aureus 29213): >64 µM; MIC in the presence of Zn2+ (S. aureus 29213): >64 µM; MIC, Control (S. aureus 29213): >64 µM; MHC (concentration of peptide that causes hemolysis of 50% of human red blood cells) [12]: >128 µM
4 | ASVVKWLWKWVWKLLK-NH2 [TP(i+4) 1&2&5&7] | >128 µM | 8 µM | 32 µM | 8 µM | 8 µM | >128 µM | 16 µM | >128 µM | 16 µM | 16 µM | 16 µM | 2.76 | 6.06 | 1.26 | 64.00 µM | –
5 | ASVVKWWWKWWWKLLK-NH2 [TP(i+4) 1&2&5&6&7] | 4 µM | 2 µM | 2 µM | 2 µM | 2 µM | 4 µM | 4 µM | 4 µM | 2 µM | 4 µM | 1 µM | 3.10 | 3.03 | 3.17 | 8.00 µM | –
6 | AKVVNKLTKGVAKLLK-NH2 [TP(i+4) 2&3] | 128 µM | >128 µM | 128 µM | >128 µM | >128 µM | 128 µM | >128 µM | 128 µM | 8 µM | >128 µM | 32 µM | 1.41 | 1.00 | 2.00 | >128 µM | –
